Laboratory results reported in patent US9650339B2, “Inhibitors of histone demethylases” (Gilead Sciences, Inc., priority 2013, dated 2017).
pIC50: −log10 of the molar value.

How the values were obtained:
Assay type in all cases: biochemical
KDM4A (JMJD2A) = target: T1, KDM4A (JMJD2A) (Homo sapiens, UniProt O75164); assay: Histone lysine demethylase AlphaLISA assay, KDM4A; conditions: read-out: KDM4A HDME Inhibition IC50
T1 construct: 1-350; purchased BPS Bioscience, US; host or cells: E. coli
T1 sequence (O75164 1-350): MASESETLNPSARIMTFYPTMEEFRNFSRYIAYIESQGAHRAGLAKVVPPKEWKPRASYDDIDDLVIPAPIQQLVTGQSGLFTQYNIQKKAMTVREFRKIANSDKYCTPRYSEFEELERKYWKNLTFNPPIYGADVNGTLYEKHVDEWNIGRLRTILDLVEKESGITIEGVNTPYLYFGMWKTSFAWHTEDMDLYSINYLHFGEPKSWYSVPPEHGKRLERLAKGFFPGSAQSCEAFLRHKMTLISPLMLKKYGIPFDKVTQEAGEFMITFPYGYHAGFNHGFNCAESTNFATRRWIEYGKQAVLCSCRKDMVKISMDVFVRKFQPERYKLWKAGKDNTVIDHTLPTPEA
Experimental: Assays are performed analogously to the protocol described by PerkinElmer (Roy et al. PerkinElmer Technical Note: AlphaLISA #12, April 2011)
Enzymes are dissolved in enzyme buffer and incubated for 10 min before being added to 3% DMSO solutions of compounds in enzyme buffer. Incubated for another 10 minutes, before substrate solution is added and the reaction mixture is incubated at room temperature. 10 μL acceptor beads, suspended in Epigenetic Buffer (Perkin Elmer AL008) from stock, are added and the suspension is incubated in the dark at room temperature, before a suspension of streptavidin donor beads (Perkin Elmer 6760002) in Epigenetic Buffer is added. After incubation at room temperature in the dark the plates are read.
BK9M3: Biotin-ARTKQTAR(KMe3)STGGKAPRKQ-NH2 (Caslo, Denmark) […]
Substrate Solution: Substrate, 25 μM L-Asc, and 10 μM α-KG in Buffer A.

KDM4C (JMJD2C) = target: T2, KDM4C (JMJD2C) (Homo sapiens, UniProt Q9H3R0); assay: Histone lysine demethylase AlphaLISA assay, KDM4C; conditions: read-out: KDM4C HDME Inhibition IC50
T2 sequence (Q9H3R0 1-349): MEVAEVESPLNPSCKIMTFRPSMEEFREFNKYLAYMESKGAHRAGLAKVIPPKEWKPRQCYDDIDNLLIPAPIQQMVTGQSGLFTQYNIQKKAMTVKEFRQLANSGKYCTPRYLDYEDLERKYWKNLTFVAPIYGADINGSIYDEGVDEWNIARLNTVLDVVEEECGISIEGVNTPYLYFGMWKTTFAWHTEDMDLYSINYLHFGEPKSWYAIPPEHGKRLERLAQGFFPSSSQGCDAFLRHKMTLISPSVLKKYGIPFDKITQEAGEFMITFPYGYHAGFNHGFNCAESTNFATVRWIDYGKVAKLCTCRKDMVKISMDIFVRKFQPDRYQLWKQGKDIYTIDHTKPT
How it was run: (§1)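 Steps: enzyme equilibrated 10 min in buffer; compounds in 3% DMSO solution added, 10 min; substrate mix added (peptide, 25 μM L-Asc, 10 μM α-KG), room temperature; acceptor beads, then streptavidin donor beads, dark incubations; plate read.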

KDM2B (FBXL10) = target: T3, KDM2B (FBXL10) (Homo sapiens, UniProt Q8NHM5); assay: Histone lysine demethylase AlphaLISA assay, KDM2B; conditions: read-out: KDM2B HDME Inhibition IC50
T3 sequence (Q8NHM5 1-650): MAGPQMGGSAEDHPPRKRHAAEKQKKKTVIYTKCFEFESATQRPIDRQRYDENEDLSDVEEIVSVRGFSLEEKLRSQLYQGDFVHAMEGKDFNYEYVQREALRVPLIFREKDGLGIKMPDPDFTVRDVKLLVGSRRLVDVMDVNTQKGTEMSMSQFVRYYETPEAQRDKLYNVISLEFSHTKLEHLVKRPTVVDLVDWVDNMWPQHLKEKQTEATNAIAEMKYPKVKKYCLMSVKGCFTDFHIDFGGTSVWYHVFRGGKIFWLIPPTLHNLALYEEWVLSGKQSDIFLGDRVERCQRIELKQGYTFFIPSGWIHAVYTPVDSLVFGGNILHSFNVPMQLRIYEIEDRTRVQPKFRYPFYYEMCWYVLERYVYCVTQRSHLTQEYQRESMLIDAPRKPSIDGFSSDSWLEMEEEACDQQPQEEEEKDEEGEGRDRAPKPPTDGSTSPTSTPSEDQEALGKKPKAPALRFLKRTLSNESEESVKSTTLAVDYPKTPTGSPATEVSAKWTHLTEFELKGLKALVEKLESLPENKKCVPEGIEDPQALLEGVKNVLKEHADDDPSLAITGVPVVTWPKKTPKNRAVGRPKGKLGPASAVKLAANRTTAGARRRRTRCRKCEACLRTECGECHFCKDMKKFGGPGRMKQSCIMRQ
How it was run: as §1

Row | pIC50 (KDM4A (JMJD2A)) | pIC50 (KDM4C (JMJD2C)) | pIC50 (KDM2B (FBXL10)) | SMILES
1 | 5.60 to 6.60 | < 5.60 | < 5.60 | CCN(CC)CCCCNCc1cc(CNC(=O)C(F)(F)F)ccn1 [Compound 1, N-{[2-({[4-(diethylamino)butyl]-amino}methyl)pyridin-4-yl]methyl}-2,2,2-trifluoroacetamide]
2 | > 6.60 | < 5.60 | < 5.60 | CN(C)CCCNCc1cc(CN)ccn1 [Compound 3, [2-({[3-(dimethylamino)propyl]-amino}methyl)pyridin-4-yl]methanamine]
3 | 5.60 to 6.60 | 5.60 to 6.60 | < 5.60 | CCN(CCN(C)C)C(=O)CNCc1cc(CN)ccn1 [Compound 4, 2-({[4-(aminomethyl)pyridin-2-yl]methyl}amino)-N-[2-(dimethylamino)ethyl]-N-ethylacetamide]
4 | < 5.60 | < 5.60 | < 5.60 | CCN(CC)CCCCNCc1cc(CN)ccn1 [Compound 5, [2-({[4-(diethylamino)butyl]-amino}methyl)pyridin-4-yl]methanamine]
5 | 5.60 to 6.60 | < 5.60 | < 5.60 | CCN(CC)CCCCN(Cc1cc(CNC(=O)C(F)(F)F)ccn1)C(=O)C(F)(F)F [Compound 6, N-[4-(diethylamino)butyl]-- 2,2,2-trifluoro-N-({4-[(trifluoroacetamido)-methyl]pyridin-2-yl}methyl)acetamide]
6 | < 5.60 | < 5.60 | < 5.60 | NCc1ccnc(CNCCCCN2CCC2)c1 [Compound 7, [2-({[4-(azetidin-1-yl)butyl]amino}methyl)-pyridin-4-yl]-methanamine]
7 | < 5.60 | < 5.60 | < 5.60 | CN(C)CCCCCNCc1cc(CN)ccn1 [Compound 8, [2-({[5-(dimethylamino)pentyl]-amino}methyl)pyridin-4-yl]methanamine]
8 | < 5.60 | < 5.60 | < 5.60 | COc1ccccc1CN1CCC(NC(=O)CNCc2cc(CN)ccn2)CC1 [Compound 9, 2-({[4-(aminomethyl)pyridin-2-yl]methyl}amino)-N-{1-[(2-methoxyphenyl)methyl]-piperidin-4-yl}acetamide]
9 | < 5.60 | < 5.60 | < 5.60 | CN(C)CCCCNCc1cc(CNC2CC2)ccn1 [Compound 10, N-{[2-({[4-(dimethylamino)butyl]-amino}methyl)pyridin-4-yl]methyl}-cyclopropanamine]
10 | < 5.60 | < 5.60 | < 5.60 | CC1CCCCN1CCCNCc1cc(CNC2CC2)ccn1 (stereo not shown) [Compound 11, N-{[2-({[3-(2-methylpiperidin-1-yl)propyl]amino}methyl)-pyridin-4-yl]methyl}-cyclopropanamine]
11 | < 5.60 | < 5.60 | < 5.60 | CCCNCc1cc(CNC2CC2)ccn1 [Compound 12, N-({2-[(propylamino)methyl]-pyridin-4-yl}methyl)-cyclopropanamine]
12 | < 5.60 | < 5.60 | < 5.60 | CN(C)C(=O)CNCc1cc(CNCC#N)ccn1 [Compound 13, 2-{[(4-{[(cyanomethyl)amino]-methyl}pyridin-2-yl)methyl]amino}-N,N-dimethylacetamide]
13 | < 5.60 | 5.60 to 6.60 | < 5.60 | CN(C)C(=O)CNCc1cc(CNCCF)ccn1 [Compound 14, 2-{[(4-{[(2-fluoroethyl)amino]-methyl}pyridin-2-yl)methyl]amino}-N,N-dimethylacetamide]
14 | < 5.60 | 5.60 to 6.60 | < 5.60 | CN(C)CCNCc1ccnc(CNCC(=O)N(C)C)c1 [Compound 15, 2-({[4-({[2-(dimethylamino)ethyl]-amino}methyl)pyridin-2-yl]methyl}amino)-N,N-dimethylacetamide]
15 |  | 5.60 to 6.60 | < 5.60 | CCN(CCN(C)C)C(=O)CNCc1cc(C2OCC(Cc3ccccc3)CN2C(=O)C(F)(F)F)ccn1 (stereo not shown) [Compound 90, 2-[({4-[5-benzyl-3-(trifluoroacetyl)-1,3-oxazinan-2-yl]pyridin-2-yl}methyl)amino]-N-[2-(dimethylamino)-ethyl]-N-ethylacetamide]
16 |  | 5.60 to 6.60 | < 5.60 | CCN(CCN(C)C)C(=O)CNCc1cc(C2OCC3(CC3)CN2C(=O)C(F)(F)F)ccn1 (stereo not shown) [Compound 91, N-[2--(dimethylamino)-ethyl]-N-ethyl-2-[({4-[7-(trifluoroacetyl)-5-oxa-7-azaspiro[2.5]-octan-6-yl]pyridin-2-yl}methyl)amino]-acetamide]
17 |  | < 5.60 | < 5.60 | CN(Cc1ccccc1F)C(=O)CNCc1cc(/C=N/CCO)ccn1 [Compound 92, N-[(2-fluorophenyl)methyl]-2-[({4-[[(2-hydroxyethyl)imino]-methyl]pyridin-2-yl}methyl)amino]-N-methylacetamide]
18 |  | < 5.60 | < 5.60 | OCC/N=C/c1ccnc(CNCCc2ccccc2OCc2ccccc2)c1 [Compound 93, 2-[({2-[({2-[2-(benzyloxy)phenyl]-ethyl}amino)methyl]-pyridin-4-yl}methylidene)-amino]ethan-1-ol]
19 |  | 5.60 to 6.60 | 5.60 to 6.60 | CCN(CCC#N)C(=O)CNCc1cc(/C=N/CCO)ccn1 [Compound 94, N-(2-cyanoethyl)-N-ethyl-2-[({4-[[(2-hydroxyethyl)imino]-methyl]pyridin-2-yl}methyl)amino]-acetamide]
20 |  | < 5.60 | < 5.60 | CC(C)C[C@H](NCc1cc(/C=N/CCO)ccn1)C(=O)N1CCCCC1 [Compound 95, (2S)-2-[({4-[[(2-hydroxyethyl)imino]-methyl]pyridin-2-yl}methyl)amino]-4-methyl-1-(piperidin-1-yl)pentan-1-one]
21 |  | < 5.60 | < 5.60 | CN1CCC(CNCc2cc(C=O)ccn2)CC1 [Compound 100, 2-({[(1-methyl-piperidin-4-yl)methyl]amino}-methyl)pyridine-4-carbaldehyde]
22 |  | 5.60 to 6.60 | < 5.60 | CCN1CCCC1CNC(=O)CNCc1cc(C=O)ccn1 (stereo not shown) [Compound 104, N-[(1-ethylpyrrolidin-2-yl)methyl]-2-{[(4-formylpyridin-2-yl)methyl]amino}-acetamide]
23 |  | < 5.60 | < 5.60 | O=Cc1ccnc(CNCCCN2CCCC2)c1 [Compound 111, 2-({[3-(pyrrolidin-1-yl)propyl]amino}-methyl)pyridine-4-carbaldehyde]
24 |  | > 6.60 | < 5.60 | CCN(CC(C)(C)N(C)C)C(=O)CNCc1cc(C=O)ccn1 [Compound 118, N-[2-(dimethylamino)-2-methylpropyl]-N-ethyl-2-{[(4-formylpyridin-2-yl)methyl]amino}-acetamide]
25 |  | < 5.60 | < 5.60 | CN(CC(=O)N1CCCCC1)Cc1cc(C=O)ccn1 [Compound 120, 2-({methyl[2-oxo-2-(piperidin-1-yl)ethyl]amino}-methyl)pyridine-4-carbaldehyde]
